Legend:
[1] = system: Gnas^f/f mice after Ad-Cre injection (POH mouse model); assay: POH mouse model: Gnas^f/f mice with subcutaneous Ad-Cre injection, ectopic and endogenous bone by μCT
[2] = system: Gnas^-/- SMP cells; assay: Osteoblast differentiation (ALP) of Gnas^-/- SMP cells in osteogenic medium; assay type: cell-based, mouse
Method: (§1) For ALP staining, cells were fixed in 4% PFA for 20 minutes, washed with PBS for three times, then stained with 1-Step NBT/BCIP (Thermo, 34042) for 30 minutes and washed by PBS. There were three biological replicates for each group. ALP staining was quantified as previously described. Cells were scraped into a radioimmunoprecipitation assay (RIPA) buffer (containing 50 mM Tris-HCl pH 7.5, 150 mM NaCl, 5% Glycerol, 1 mM EDTA, 1% NP-40, 0.1% SDS and 0.25% Na-deoxycholate) and centrifuged. The enzymatic alkaline phosphatase activity in the supernatant of cell lysate was assayed by measuring the chromogenic p-nitrophenol formed from the enzymatic hydrolysis of p-nitrophenyl phosphate (the substrate) by light absorbance at 405 nm. The alkaline phosphatase activity was normalized to total protein, as measured by BCA protein assay. All experiments were performed in triplicates and means and standard deviations were calculated.
Subcutaneous mesenchymal progenitor (SMP) cells are potential osteoprogenitor cells within the subcutaneous connective tissue which can be induced to become osteoblast cells and adipocytes. Subcutaneous skin tissue containing adipose deposits was removed under sterile conditions and washed in PBS supplemented with 100 U/mL penicillin and 100 μg/mL streptomycin on ice. The tissue was then minced, and digested with 1 mg/ml collagenase type I and 0.5% Trypsin in 0.1% BSA for 70 minutes at 37° C. The digested tissue was centrifuged at 500 g for 10 min and the pellet was carefully collected after aspirating off the floating fat depots. After a second centrifugation at 500 g for 10 min, the cellular pellet was filtered through a 100 μm mesh filter to remove debris.
(§2) Cre recombinase adenovirus from Berk (˜10^12 pfu/ml) were diluted 1:50 in 100 μl PBS solution and injected into the subcutaneous region of the limbs of 4 weeks old mice. Six weeks, 3 months or 8 months after injection, the limbs were harvested from euthanized mice and fixed in 4% PFA overnight. Ectopic bone formation was analyzed by μCT and skeletal preparation. The Cre recombinase or GFP adenovirus (˜10^10 pfu/ml) was diluted 1:2000 to infect cells in vitro. Four hours later, fresh medium was added and 24 hours later, the medium was changed.

[3] = system: WT mice with Achilles tendon puncture (ATP); assay: Achilles tendon puncture (ATP) injury-induced HO mouse model, μCT; assay type: in vivo; details: for HO formation (ectopic bone volume): from the day of ATP, vs vehicle
Description: For ATP mouse model, 4-week-old male mice were anesthetized. A 27-gauge needle was punctured into the Achilles tendon body from the lateral aspect percutaneously and this process was repeated six times at different parts of Achilles tendon body for each mouse. For sham operation, the needle was punctured through the skin without touching the Achilles tendons.
(§3) Mice were fixed overnight in 4% PFA and transferred to 70% ethanol, then analyzed by high-resolution μCT using a deskop μCT (Scanco Medical) according to recommended guidelines. The scanner was set at a voltage of 55 kV and a resolution of 12.3 μm per pixel. The images were reconstructed, analyzed for HO bone volume and endogenous bone mass. Briefly cortical bone parameters and cancellous bone microarchitecture from tibia were determined using a 7-μm isotropic voxel size. For ectopic bone, bone volume was measured. For cancellous bone, bone volume fraction (bone volume per tissue volume [BV/TV]) (percentage), trabecular number (Tb.N) (per millimeter), trabecular thickness (Tb.Th) (millimeter), trabecular separation (Tb.Sp) (millimeter) was analyzed. For cortical bone, cortical area fraction (Ct. BV/TV) (percentage), cortical bone density (Ct. BMD) (mgHA/cm3) were evaluated.

[4] = system: ACVR1^R206H; ScxCre mice (FOP model); assay: FOP mouse model ScxCre; ACVR1^R206H, HO volume by μCT; assay type: in vivo; details: VP 4 mg/kg/d IP, 5 days per week, starting at 6 weeks of age for 8 weeks
Method: The ACVR1^FlExR206H mice conditionally express ACVR1^R206H/+ knock-in alleles, were kindly provided by Dr. Aris Economides (Regeneron Pharmaceuticals, Inc.), mated with ScxCre mice, to yield ScxCre; ACVR1^FlEx206H/+ mice, which represent a FOP mouse model that develops spontaneous HO of tendons, ligaments, and joints. These mice were treated with Verteporfin (VP) (4 mg/kg/d intraperitoneal (IP) injection, 5 days per week) or an equal volume of PBS for 8 weeks, starting at 6 weeks of age. […]
as §3, with “The scanner was set at a voltage of 55 kV and a resolution of 12.3 μm per pixel.” left out

[5] = system: ACVR1^Q207D/+ SMPs; assay: ACVR1^Q207D/+ SMPs with Ad-Cre infection: ALP activity and QRT-PCR; assay type: cell-based, mouse; details: VP 200 ng/ml for 7 days
Method: as §1
The skin was removed from the hindlimb covering the tibia and the subcutaneous tissue area (5 mm (1)×5 mm (w)×4 mm (h)) where the Ad-Cre were locally injected was isolated. Subcutaneous connective tissue and some muscle cells surrounding the ectopic bone would have been included. Total RNA was isolated first with Trizol (Invitrogen). […] PCR product accumulation was detected using Sybr green (Invitrogen; Platinum SYBR Green qPCR SuperMix-UDG). […]

[6] = system: Shh protein; assay: Shh protein levels by Western blotting in Gnas^f/f SMPs after Ad-Cre infection; assay type: cell-based, mouse; details: 200 ng/ml for 7 days after Ad-Cre infection (FIG. 4B)
Method: as §2
Tissue or cell lysates were prepared using a lysis buffer [20 mM Tris (pH 7.4), 150 mM NaCl, 1% Tri-ton X-100, 1 mM EDTA, 1 mM EGTA, 2.5 mM sodium pyrophosphate, 1 mM β-glycerophosphate, 1 mM sodium orthovanadate] or RIPA buffer (Santa Cruz Biotechnology), respectively, containing protease inhibitor mixture (Roche). Total cell lysates were analyzed by Western blotting according to standard procedures.

[7] = Gnas^-/- SMP cells cultured with the inhibitors for 7 days (FIG. 11G)

Compound | HO (ectopic bone volume, μCT) ([1]; CT7001 10 mg/kg gavage every other day after Ad-Cre injection) | osteoblast differentiation (ALP) [2, 7] | HO (ectopic bone volume, μCT) ([1]; THZ1 10 mg/kg IP injection 5 days a week after Ad-Cre injection) | HO formation (ectopic bone volume) ([3]; THZ1 (1 mM) applied on the skin of the trauma area) | endogenous bone mass ([1]; 3 months of non-stop VP treatment (IP 2.5 mg/kg)) | endogenous tibia bone mass ([1]; 6 weeks after VP IP injection (2.5 mg/kg, 5 days per week), treated vs untreated) | HO after VP withdrawal ([1]; VP IP 2.5 mg/kg for 6 weeks from Ad-Cre injection, then no treatment, harvested 3 months after Ad-Cre) | already formed HO (ectopic bone volume) ([1]; VP IP 2.5 mg/kg started 6 weeks after Ad-Cre injection, 5 times per week for 6 weeks, vs untreated) | HO (ectopic bone volume, μCT) ([1]; VP IP injection (2.5 mg/kg) 5 days a week for 6 weeks, immediately after Ad-Cre injection) | HO (ectopic bone volume, μCT) ([1]; VP topically applied (0.2 mg/ml; 200 μg/ml) 5 days per week for 6 weeks, immediately after Ad-Cre injection) | tendon, ligament, and intra-articular HO (HO volume) [4] | osteoblast differentiation (ALP) ([2]; 200 ng/ml for 7 days after Ad-Cre infection (FIG. 4A)) | osteoblast differentiation (ALP) [5] | expression of Yap and Hh target genes, Shh and Ihh ([5]; QRT-PCR) | Shh protein levels [6] | endogenous bone mass (tibia bones) ([3]; VP IP 2.5 mg/kg 5 days per week, VP treated vs control) | HO formation (ectopic bone volume) ([3]; VP higher dose 200 μg/ml applied on the skin of the trauma area) | HO formation (ectopic bone volume) ([3]; VP low dose 20 μg/ml applied on the skin of the trauma area)
CC(C)c1cnn2c(NCc3ccccc3)cc(NC[C@H]3CCNC[C@@H]3O)nc12 [CT7001] | reduced HO | reduced |  |  |  |  |  |  |  |  |  |  |  |  |  |  |  | 
CN(C)C/C=C/C(=O)Nc1ccc(C(=O)Nc2cccc(Nc3ncc(Cl)c(-c4c[nH]c5ccccc45)n3)c2)cc1 [THZ1] |  | reduced | reduced HO | completely blocked |  |  |  |  |  |  |  |  |  |  |  |  |  | 
Verteporfin [VP] |  | reduced |  |  | not reduced | no significant change | significantly reduced | obviously reduced | more effective HO blockage | HO reduction | significantly reduced | decreased | reduced | reduced | decreased | no significant difference | completely blocked | reduced
